From patent publication US11142526B2, “Spirocycle compounds and methods of making and using same” (H. Lundbeck A/S, priority 2017, dated 2021)
Read-outs that look alike come from different tables or passages of the source.

Legend:
MAGL [1] = target: T1, MAGL (Mus musculus (Mouse), UniProt O35678); assay: Mouse brain proteomes from inhibitor treated mice (oral gavage, brain MAGL activity 4 h after administration); assay type: in vivo; conditions: 5 mg/kg oral gavage
Description: Preparation of Mouse Brain Proteomes from Inhibitor Treated Mice.
Inhibitors were administered to wild-type C57B1/6J by oral gavage in a vehicle of polyethylene glycol.

MAGL [2] = target: MAGL (Homo sapiens (Human), UniProt Q99685); assay: In vitro competitive activity-based protein profiling (gel-based, FP-Rh or HT-01 probe); assay type: biochemical; conditions: for IC50: read-out: MAGL Human PC3 (IC50)
Description: In Vitro Competitive Activity-Based Protein Profiling.
Proteomes (human prefrontal cortex or cell membrane fractions) (50 μL, 1.0 mg/mL total protein concentration) were preincubated with varying concentrations of inhibitors at 37° C. After 30 min, FP-Rh or HT-01 (1.0 μL, 50 μM in DMSO) was added and the mixture was incubated for another 30 min at room temperature. Reactions were quenched with SDS loading buffer (15 μL—4×) and run on SDS-PAGE.

MAGL [3] = target: T1, MAGL; assay: In vitro competitive activity-based protein profiling, mouse brain proteome; assay type: biochemical; conditions: for inhibition at 1 µM: mouse; for IC50: mouse brain
[4] = human PC3, read-out: MAGL % Inhibition at 1 μM (human PC3)
[5] = human PFC (prefrontal cortex), read-out: MAGL % Inhibition at 1 μM (human PFC)

Chain of MAGL (Homo sapiens (Human), UniProt Q99685) (Q99685 whole entry): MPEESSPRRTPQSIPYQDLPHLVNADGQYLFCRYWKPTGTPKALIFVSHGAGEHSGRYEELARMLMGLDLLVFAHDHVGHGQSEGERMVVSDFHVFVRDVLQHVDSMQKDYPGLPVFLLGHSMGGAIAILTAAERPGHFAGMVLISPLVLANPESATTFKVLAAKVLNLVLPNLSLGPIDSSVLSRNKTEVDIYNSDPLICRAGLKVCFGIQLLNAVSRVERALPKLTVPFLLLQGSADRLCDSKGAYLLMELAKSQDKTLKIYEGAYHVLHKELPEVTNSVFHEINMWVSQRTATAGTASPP
T1 sequence (O35678 whole entry): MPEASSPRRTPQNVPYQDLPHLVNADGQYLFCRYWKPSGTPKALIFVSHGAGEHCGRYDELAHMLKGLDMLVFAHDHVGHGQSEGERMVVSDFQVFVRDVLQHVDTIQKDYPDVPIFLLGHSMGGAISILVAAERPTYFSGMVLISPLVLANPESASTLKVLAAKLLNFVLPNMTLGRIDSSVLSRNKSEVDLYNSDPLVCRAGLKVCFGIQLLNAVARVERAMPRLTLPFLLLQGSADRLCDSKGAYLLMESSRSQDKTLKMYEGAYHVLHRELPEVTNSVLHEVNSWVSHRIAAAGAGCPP

| IC50 (MAGL [2]; human PC3) | inhibition at 1 µM (MAGL [3]) | IC50 (MAGL [3]) | inhibition at 1 µM (MAGL [2]; [4]) | inhibition at 1 µM (MAGL [2]; [5]) | Structure (SMILES) | MAGL % Inhibition at 5 mg/kg (Mouse) (MAGL [1]) |
| --- | --- | --- | --- | --- | --- | --- |
| < 100 nM | > 75% | < 100 nM | – | – | O=C(OC(C(F)(F)F)C(F)(F)F)N1CCC2(CCCN2Cc2cc(-c3ccc(F)cc3)on2)CC1 [Example 39, 1,1,1,3,3,3-Hexafluoropropan-2-yl 1-((5-(4-fluorophenyl)isoxazol-3-yl)methyl)-1,8-diazaspiro[4.5]decane-8-carboxylate] | ### (% inhibition is greater than or equal to 75%) |
| < 100 nM | > 75% | – | > 75% | > 75% | CC(C)(O)CN1CCn2c(nnc2C(=O)NC2(C)CCN(C(=O)OC(C(F)(F)F)C(F)(F)F)CC2)C1 [Example 206, 1,1,1,3,3,3-Hexafluoropropan-2-yl 4-(7-(2-hydroxy-2-methylpropyl)-5,6,7,8-tetrahydro-[1,2,4]triazolo[4,3-a]pyrazine-3-carboxamido)-4-methylpiperidine-1-carboxylate] | ### (% inhibition is greater than or equal to 75%) |
| < 100 nM | > 75% | < 100 nM | – | – | O=C(OC(C(F)(F)F)C(F)(F)F)N1CCC2(CCCN2Cc2cnc3ccc(Cl)cn23)CC1 [Example 229, 1,1,1,3,3,3-Hexafluoropropan-2-yl 1-((6-chloroimidazo[1,2-a]pyridin-3-yl)methyl)-1,8-diazaspiro[4.5]decane-8-carboxylate] | ### (% inhibition is greater than or equal to 75%) |
| < 100 nM | > 75% | – | > 75% | – | CC1(NC(=O)c2cn3c(n2)CN(C(=O)C(C)(C)C)CC3)CCN(C(=O)OC(C(F)(F)F)C(F)(F)F)CC1 [Example 191, 1,1,1,3,3,3-Hexafluoropropan-2-yl 4-methyl-4-(7-pivaloyl-5,6,7,8-tetrahydroimidazo[1,2-a]pyrazine-2-carboxamido) piperidine-1-carboxylate] | # (% inhibition less or equal to 25%) |
| < 100 nM | > 75% | – | > 75% | – | CC1(NC(=O)c2cn3c(n2)CN(C(=O)C2(C)CC2)CC3)CCN(C(=O)OC(C(F)(F)F)C(F)(F)F)CC1 [Example 190, 1,1,1,3,3,3-Hexafluoropropan-2-yl 4-methyl-4-(7-(1-methylcyclopropane-1-carbonyl)-5,6,7,8-tetrahydroimidazo[1,2-a]pyrazine-2-carboxamido) piperidine-1-carboxylate] | # (% inhibition less or equal to 25%) |
| < 100 nM | > 75% | – | – | > 75% | Cn1cc(Cl)c(C(=O)N2CCCC23CCN(C(=O)OC(C(F)(F)F)C(F)(F)F)CC3)n1 [Example 120, 1,1,1,3,3,3-Hexafluoropropan-2-yl 1-(4-chloro-1-methyl-1H-pyrazole-3-carbonyl)-1,8-diazaspiro[4.5] decane-8-carboxylate] | ### (% inhibition is greater than or equal to 75%) |
| < 100 nM | > 75% | < 100 nM | – | – | Cc1c(CN2CCCC23CCN(C(=O)OC(C(F)(F)F)C(F)(F)F)CC3)[nH]c2ccc(F)cc12 [Example 58, 1,1,1,3,3,3-Hexafluoropropan-2-yl 1-((5-fluoro-3-methyl-1H-indol-2-yl)methyl)-1,8-diazaspiro[4.5] decane-8-carboxylate] | ### (% inhibition is greater than or equal to 75%) |
| < 100 nM | > 75% | – | > 75% | > 75% | O=C(OC(C(F)(F)F)C(F)(F)F)N1CCC2(CCCN2C(=O)c2cnn3c2CCCC3)CC1 [Example 148, 1.1,1,3,3,3-Hexafluoropropan-2-yl 1-(4,5,6,7-tetrahydropyrazolo [1,5-a]pyridine-3-carbonyl)-1,8-diazaspiro[4.5] decane-8-carboxylate] | ### (% inhibition is greater than or equal to 75%) |
| < 100 nM | > 75% | – | > 75% | > 75% | CC(C)Oc1cnc(C2(C(=O)N3CCCC34CCN(C(=O)OC(C(F)(F)F)C(F)(F)F)CC4)CC2)nc1 [Example 194, 1,1,1,3,3,3-Hexafluoropropan-2-yl 1-(1-(5-isopropoxypyrimidin-2-yl)cyclopropane-1-carbonyl)-1,8-diazaspiro [4.5]decane-8-carboxylate] | ### (% inhibition is greater than or equal to 75%) |
| < 100 nM | > 75% | – | > 75% | > 75% | CC1(NC(=O)c2nnc3n2CCN(C2CC2)C3)CCN(C(=O)OC(C(F)(F)F)C(F)(F)F)CC1 [Example 204, 1,1,1,3,3,3-Hexafluoropropan-2-yl 4-(7-cyclopropyl-5,6,7,8-tetrahydro-[1,2,4]triazolo[4,3-a]pyrazine-3-carboxamido)-4-methylpiperidine-1-carboxylate] | ### (% inhibition is greater than or equal to 75%) |
| < 100 nM | > 75% | – | > 75% | > 75% | O=C(OC(C(F)(F)F)C(F)(F)F)N1CCC2(CCCN2C(=O)C2(c3ncc(F)cn3)CC2)CC1 [Example 180, 1,1,1,3,3,3-Hexafluoropropan-2-yl 1-(1-(5-fluoropyrimidin-2-yl)cyclopropane-1-carbonyl)-1,8-diazaspiro[4.5] decane-8-carboxylate] | ### (% inhibition is greater than or equal to 75%) |
